Measured values taken from paper PMC12797002, “Hydrophobic residues in the α‐synuclein NAC domain drive seed‐competent fibril formation and are targeted by peptide inhibitors” (The Febs Journal, 2025).

Experiments:
αSyn = details: cited from earlier work
Text: Building on our findings that the presence of residues 8–11 in NAC peptides, corresponding to αSyn 68–71, is necessary for efficient nucleation and aggregation, we investigated whether disrupting this hydrophobic region could inhibit full‐length αSyn aggregation. Truncating these residues abolished aggregation, and peptides containing them (e.g., NAC16, NAC11) aggregated rapidly (Fig. 1). To test whether targeting this site could suppress aggregation, we selected a previously validated inhibitor peptide based on the KISVRV sequence. This segment mimics the 70–75 region of αSyn, a hydrop ...

recombinant αSyn = experiment: Effect of inhibitor peptides on αSyn aggregation (ThT, TEM, dot blot, Coomassie gel); assay type: biochemical, human
Method: For monitoring the effect of inhibitor peptides on αSyn aggregation, recombinant αSyn was incubated with PD, PL, PB, or scrambled peptides at a 1 : 2 molar ratio (100–150 μM αSyn:200–300 μM inhibitor) in the presence of 50 μM ThT. The incubation was performed at 37 °C with constant agitation at 850 rpm in a Turbo Thermo Shaker (TMS‐200; Allsheng, Hangzhou, China). The formation of amyloid fibrils was monitored by measuring ThT fluorescence over 72 h, as described previously.
To fractionate aggregated samples (recombinant αSyn or NAC peptides), 20% of the aggregation mixture was set aside as the ‘total fraction’. The remaining sample was centrifuged at room temperature at 65 000 g for 1 h. The supernatant was collected as the ‘soluble fraction’ and transferred to a fresh tube. The pellet was resuspended in 80 μL of 1× PBS (pH 7.2) and centrifuged at 65 000 g for 1 h. After removing the supernatant, the pellet was resuspended in 8 μL of 1× PBS (pH 7.2), yielding a 10× concentrated ‘insoluble fraction’.
Samples were dropped on glow‐discharged carbon‐coated copper grids and negatively stained with 2% uranyl acetate. Electron microscopy was performed on a Tecnai G2 F20 microscope (FEI Technologies, Hillsboro, OR, USA) with an Eagle 4K CCD camera (FEI Technologies) or a CM100 TWIN Transmission Electron Microscope (Philips, Amsterdam, Netherlands) equipped with a side‐mounted Veleta Camera (Olympus, Tokyo, Japan) and processed in the iTEM software suite (Olympus). After bringing the images to 2048 × 2048 pixels, the pixel size at the specimen level was 1.14 nm. Approximately 20 micrographs of each specimen were recorded and evaluated.
The samples were mixed with 2× Laemmli buffer [62.5 mM Tris/HCl (pH 6.8), 25% (w/v) glycerol, 2% SDS, and 0.01% Bromophenol Blue, supplemented with 5% (v/v) 2‐mercaptoethanol] and boiled at 95 °C for 5 min. The samples were then subjected to electrophoresis using Mini‐PROTEAN TGX 4–20% Precast gels (Bio‐Rad, Hercules, CA, USA, Cat. # 4561095) in Tris/glycine/SDS running buffer (Bio‐Rad). […]

[1] = Self-aggregation of inhibitor peptides alone (ThT, SEM); assay type: physicochemical; details: Fig. S8
Method: NAC peptides stored at −80 °C were thawed on ice and centrifuged at 12 100 g for 45 s. A reaction mixture (40 μL) was prepared on ice containing 100 μM NAC peptide, either alone or in combination with inhibitor peptides at a 1 : 2 molar ratio, along with 15 μM ThT (Sigma‐Aldrich, Burlington, MA, USA; Cat. # T3516‐5G) in 1× PBS (pH 7.2). This mixture was then dispensed into a clear‐bottom, black 384‐well plate (Revvity, Waltham, MA, USA), and the plate was sealed with a TopSealA‐PLUS (Revvity) to prevent evaporation.
The aggregation kinetics was monitored on an EnSpire Multimode Plate Reader (Revvity) at 37 °C with a constant agitation of 1000 rpm. To prevent condensation in the assay plate, the upper heater temperature in the plate reader was set to 2 °C higher than the lower heater temperature. ThT (Ex: 460–490 nm, Em: 500–550 nm) fluorescence readings were recorded every 5–10 min for 48–72 h. The aggregation lag time was determined by fitting a Boltzmann sigmoidal equation to the fluorescence data in OriginPro 2024 (OriginLab Corporation, Northampton, MA, USA).
NAC peptides aggregated in the absence or presence of inhibitor peptides, as described in the section Aggregation Kinetics, were collected and pooled into Eppendorf tubes. Approximately 2 μL of each sample was drop‐cast onto a silicon wafer and air‐dried at room temperature. […]

[2] = system: HEK293T αSyn (A53T) CFP/YFP biosensor cells; experiment: Cell seeding assay (CFP/YFP inclusions, FRET flow cytometry); assay type: cell-based; details: 1 μM total or insoluble fraction, TurboFect
Text: HEK293T αSyn (A53T) CFP/YFP biosensor cells (HEK293T parental line, RRID:CVCL_0063) were kindly provided by Dr. Marc Diamond from the University of Texas Southwestern Medical Center (Dallas, TX, USA). The cells were not further authenticated but were routinely tested and confirmed to be mycoplasma‐free using PCR‐based assays. The cells were maintained in complete growth media consisting of 88% Dulbecco's modified Eagle's growth medium (Lonza, Walkersville, MD, USA, Cat. # 12‐604F), supplemented with 10% (v/v) fetal bovine serum (Thermo Fisher Scientific Inc., Cat. # A5256701), 10 mM HEPES (Serana Europe GmbH, Brandenburg, Germany; Cat # BSL‐001‐100ML), 1% (v/v) GlutaMAX™ Supplement (Thermo Fisher Scientific Inc., Cat. # 35050061), and 1% (v/v) Penicillin–Streptomycin Solution (Thermo Fisher Scientific Inc., Cat. # 15140130). Cells were maintained at 37 °C in a humidified incubator with 5% CO2/atmospheric air. […]
Cells were imaged using a high‐content imaging system (Cell Voyager 7000S; Yokogawa, Tokyo, Japan) with a 20× objective. CFP/YFP inclusions of αSyn (A53T) were detected using a 488 nm laser line (Ex = 460–490 nm, Em = 500–550 nm), while Hoechst‐33 342‐stained nuclei were detected using the 405 nm laser line (Ex = 360–400 nm, Em = 410–480 nm). […]

KISVRV
effect on preformed αSyn oligomers (αSyn): dissolve preformed oligomers | effect on αSyn fibril formation (αSyn): inhibit αSyn fibril formation

VSRKIVRRRRR [PS]
final ThT reading normalized to control (amyloid fibrils formed) (recombinant αSyn; αSyn : peptide 1 : 2, end of aggregation assay, n = 3 (PS n = 2)): increase in αSyn aggregation | αSyn fibrils by TEM (recombinant αSyn; αSyn aggregated with peptide at 1 : 2): fibril morphology was unaffected | self-aggregation (ThT kinetics of peptide alone) [1]: no signs of self‐aggregation

KISVRVRRRRRR [PB]
reduction of seed competency of αSyn fibrils, ranking ([2]; 72 h, Fig. 5C,D): most effective

KISVRVRRRRRR [PD]
inhibition of αSyn aggregation (ThT kinetics) (recombinant αSyn; αSyn : peptide 1 : 2 molar ratio (100–150 μM : 200–300 μM), 50 μM ThT, 37 °C, 850 rpm, 72 h, n = 3): highly effective in inhibiting αSyn aggregation | CFP/YFP inclusions in cells transduced with αSyn fibrils formed with inhibitor ([2]; αSyn : peptide 1 : 2 for 72 h, n = 3): reduced inclusions
